Activity calls are given as the source filed them.

The values that follow come from ChEMBL document CHEMBL5137094, “Construction of Covalent Bisubstrate Inhibitor of Protein Kinase Reacting with Cysteine Residue at Substrate-Binding Site” (J Med Chem, 2022).

Data set [1] is described as follows: Drug uptake in live human HeLa cells assessed as drug penetration by measuring increase in fluorescence intensity at 5 uM incubated for 2 hrs by PKAc antibody immunostaining based Western blot analysis. The format is ADME, cell-based. Background: Immunoblotting shows a protein as a band on a membrane.
For data set [2], the target named is T1, cAMP-dependent protein kinase catalytic subunit alpha (Homo sapiens, UniProt P17612). Put plainly: Binding affinity to recombinant human spiked PKAC-alpha in human HeLa cells assessed as covalent compound-protein adduct formation by measuring multiple fluorescent band formation at 0.15 to 1 uM incubated for 1 hr by 5-TAMRA dye based Western blot analysis. The format is cell-based. As to conditions: dose 0.15-1 µM.

The target in data set [3] is T1, cAMP-dependent protein kinase catalytic subunit alpha. Put plainly: Binding affinity to recombinant human PKAC-alpha in human HeLa cells assessed as increase in intensity of fluorescent labeled bands at 5 uM incubated for 2 hrs in presence of forskolin by Western blot analysis. The format is cell-based.
Data set [4] in a line: Drug uptake in human HeLa cell lysates assessed as drug penetration by measuring increase in fluorescence intensity at 1.5 uM incubated for 2 hrs by PKAc antibody immunostaining based Western blot analysis. The data set is classed as ADME, subcellular.
Data set [5] in a line: Drug uptake in cell membrane of human HeLa cells assessed as observation of cell plasma membrane protrusions at 1 to 5 uM incubated for 15 mins to 2 hrs in presence of forskolin by live cell imaging analysis. The data set is classed as ADME, cell membranes. The settings on record: dose lower 1 µM, time lower 15 min, dose upper 5 µM, time upper 120 min.
A short description of data set [6]: Drug uptake in live human HeLa cells assessed as increase in fluorescence intensity at 1 to 5 uM by microplate reader analysis. The format is ADME, cell-based. As to conditions: TDE = time-dependent effect, dose lower 1 µM, time lower 15 min, dose upper 5 µM, time upper 120 min.
A short description of data set [7]: Drug uptake in endosome of human HeLa cells assessed as punctate perinuclear pattern formation at 1 to 5 uM incubated for 15 mins to 2 hrs in presence of forskolin by live cell imaging analysis. The format is ADME, subcellular. As to conditions: dose lower 1 µM, time lower 15 min, dose upper 5 µM, time upper 120 min.
Data set [8] is described as follows: Drug uptake in endosome of human HeLa cells assessed as punctate perinuclear pattern formation at 1 to 5 uM incubated for 15 mins to 2 hrs by live cell imaging analysis. The data set is classed as ADME, subcellular. The settings on record: dose lower 1 µM, time lower 15 min, dose upper 5 µM, time upper 120 min.
Data set [9] can be described thus: Drug uptake in cytoplasm of human HeLa cells at 1 to 5 uM incubated for 15 mins to 2 hrs in presence of forskolin by live cell imaging analysis. The data set is classed as ADME, subcellular. The settings on record: dose lower 1 µM, time lower 15 min, dose upper 5 µM, time upper 120 min.
Data set [10] can be described thus: Drug uptake in cytoplasm of human HeLa cells at 1 to 5 uM incubated for 15 mins to 2 hrs by live cell imaging analysis. The data set is classed as ADME, subcellular. The settings on record: dose lower 1 µM, time lower 15 min, dose upper 5 µM, time upper 120 min.
The nature of data set [11]: Drug uptake in live human HeLa cells assessed as drug internalization at 5 uM incubated for 15 mins to 2 hrs in absence of forskolin by live cell imaging analysis. The data set is classed as ADME, cell-based. The settings on record: time 15-120 min.
Data set [12] in a line: Drug uptake in cell membrane of human HeLa cells assessed as observation of cell plasma membrane protrusions at 1 to 5 uM incubated for 15 mins to 2 hrs by live cell imaging analysis. The settings on record: dose lower 1 µM, time lower 15 min, dose upper 5 µM, time upper 120 min. The data set is classed as ADME, cell membranes.
The nature of data set [13]: Drug uptake in live human HeLa cells assessed as drug internalization at 5 uM incubated for 15 mins to 2 hrs in presence of forskolin by live cell imaging analysis. The settings on record: time 15-120 min. The format is ADME, cell-based.
Data set [14] has as its target T1, cAMP-dependent protein kinase catalytic subunit alpha. Put plainly: Binding affinity to human recombinant PKAC-alpha assessed as inactivation constant measured upto 60 mins by Western blot analysis.
Data set [15] has the same target. Put plainly: Binding affinity to human recombinant PKAC-alpha assessed as inactivation constant incubated for 1 hr by time-gated luminescence intensity based displacement assay.
The target is the same in data set [16]. Put plainly: Covalent inhibition of human recombinant PKAC-alpha assessed as inhibition constant.
Data set [17] shares this target. Put plainly: Binding affinity to human recombinant PKACalpha assessed as compound-protein adduct formation by measuring half life at 30 degreeC.
Data set [18] shares this target. Put plainly: Binding affinity to human recombinant PKAC-alpha assessed as reduction in TGLI signal at 10 uM pretreated with compound followed by ARC-1063 fluorescent probe addition by time-gated luminescence intensity based displacement assay. As to conditions: time 60-480 min, TDE = time-dependent effect.
Data set [19] shares this target. Put plainly: Binding affinity to human recombinant PKAC-alpha at Cys199 residue assessed as compound-protein adduct formation by measuring mass difference at 3.5 uM incubated for 2 hrs by LC-MS/MS analysis.
Data set [20] has the same target. Put plainly: Displacement of ARC-1063 fluorescent probe from recombinant human PKAC-alpha assessed as dissociation half life preincubated for 1 hr followed by photoluminescent probe addition by time-gated luminescence intensity based assay.
Data set [21] is described as follows: GSH reactivity in potassium phosphate buffer at pH 7.4 assessed as half life at 0.15 mM at 30 degreeC measured for 30 to 60 mins by HPLC-MS analysis. The data set is classed as physicochemical. The settings on record: potassium phosphate buffer with GSH, time 30-60 min.
A short description of data set [22]: Drug degradation in phosphate buffer at pH 7.4 assessed as half life at 0.15 mM at 30 degreeC measured for 30 to 60 mins by HPLC-MS analysis. The format is ADME. As to conditions: time 30-60 min.
Data set [23] is described as follows: GSH reactivity in potassium phosphate buffer at pH 7.4 assessed as half life at 0.15 mM at 37 degreeC measured for 30 to 60 mins by HPLC-MS analysis. The format is physicochemical. The settings on record: potassium phosphate buffer with GSH, time 30-60 min.
Data set [24] in a line: Drug degradation in phosphate buffer at pH 7.4 assessed as half life at 0.15 mM at 37 degreeC measured for 30 to 60 mins by HPLC-MS analysis. The format is ADME. The settings on record: time 30-60 min.

On to `CC[C@H](C)[C@H](NC(=O)CCC(=O)N[C@@H](CCCCNC(=O)[C@@H](CCCNC(=N)N)NC(=O)CCCCCCCC(=O)N1CCN(c2ncnc3[nH]ccc23)CC1)C(=O)N[C@H](CCCNC(=N)N)C(=O)N[C@H](CCCNC(=N)N)C(=O)N[C@H](CCCCNC(=O)CCCCC[N+]1=C(/C=C/C=C/C=C2\N(C)c3ccc4ccccc4c3C2(C)C)C(C)(C)c2c1ccc1ccccc21)C(N)=O)C(=O)NCC(=O)CF`, for which the Drug uptake entry in data set [1] and in data set [4] was “Active” each time. For the same molecule, the outcome in [2] and in data set [3] was Active.

On to `CC[C@H](C)[C@H](NC(=O)CCC(=O)N[C@@H](CCCCNC(=O)[C@@H](CCCNC(=N)N)NC(=O)CCCCCCCC(=O)N1CCN(c2ncnc3[nH]ccc23)CC1)C(=O)N[C@H](CCCNC(=N)N)C(=O)N[C@H](CCCNC(=N)N)C(=O)N[C@H](CCCCNC(=O)CCCCC[N+]1=C(/C=C/C=C/C=C2\N(C)c3ccccc3C2(C)C)C(C)(C)c2ccccc21)C(N)=O)C(=O)NCC(=O)CF`, for which the Drug uptake result in data set [5] is given as “Active”; in [6] it was “Tde”; in [7], “Active”; in [8] it was “Active”; in data set [9], “Active”; in [10] it was “Active”. For the same molecule, the Drug uptake result in [11], in [12] and in data set [13] was “Active” in each case.

For the molecule `CC[C@H](C)[C@H](NC(=O)CCC(=O)N[C@@H](CCCCNC(=O)[C@@H](CCCNC(=N)N)NC(=O)CCCCCCCC(=O)N1CCN(c2ncnc3[nH]ccc23)CC1)C(=O)N[C@H](CCCNC(=N)N)C(=O)N[C@H](CCCNC(=N)N)C(N)=O)C(=O)NCC(=O)CF`, the Kinact is 5.8 10^-4/s in [14] and 6.1 10^-4/s in [15]. In [16], the Ki turned out to be 0.023 nM. The values for the T1/2 in [17] and in data set [20] were 19.2 min and 19 min, respectively. Also, the Activity entry in data set [18] is “Tde”. Besides, the outcome in data set [19] was Active. Moreover, the half-life (commonly the time needed for the level to fall by half in the phase considered) at 150 µM in [21] is 44.4 min; in [22], 78.6 min; in data set [23] it was 22.2 min; in data set [24], 57 min.
